Measured values: patent US6726936B1, “Antimicrobial agents” (Sumitomo Metal Mining Co., Ltd., priority 1998, dated 2004)

Columns and labels:
[1] = NaCl concentration required to stabilize silver-chloro complex salts; type: physicochemical; conditions: for NaCl CONCENTRATION REQUIRED TO STABILIZE SILVER-CHLORO COMPLEX SALTS IN AQUEOUS SOLUTION OF 70% (w/v) ETHANOL (b) / NaCl CONCENTRATION REQUIRED TO STABILIZE SILVER-CHLORO COMPLEX SALTS IN WATER (AQUEOUS SOLUTION) (a): 25° C.
Method: The concentration of the chloride in the second antimicrobial agent in accordance with the present invention is not particularly limited, but it is preferable that the chloride be added in a predetermined concentration in accordance with the concentration of the silver-chloro complex salts contained in the antimicrobial agent. […] Specifically, the required concentration of the chloride to stabilize the silver-chloro complex salts (at 25° C.) has the following correlation in water or in a 70%(w/v) ethanol aqueous solution.

[2] = upper limit value of the silver-chloro complex salts in sodium chloride-water-ethanol; type: physicochemical; conditions: water and ethanol mixed in the volume ratio of 32:68, 3%(w/v) of sodium chloride
Excerpt: For example, in the system of silver-chloro complex salts (sodium tetrachloroargentate (I))-sodium chloride-water-ethanol, the upper limit value of the silver-chloro complex salts is 46 ppm when water and ethanol was mixed in the volume ratio of 32:68 and 3%(w/v) of sodium chloride was contained therein.

[3] = silver ion concentration 0.183 ppm
[4] = silver ion concentration 0.410 ppm
[5] = silver ion concentration 2.600 ppm
[6] = silver ion concentration 8.697 ppm
[7] = silver ion concentration 42.189 ppm

Structure (SMILES): [Cl][Ag-3]([Cl])([Cl])[Cl].[Na+].[Na+].[Na+] [SILVER-CHLORO COMPLEX SALTS, sodium tetrachloroargentate (I)]
- ratio of NaCl concentration required in 70% ethanol to that required in water [1, 3]: 0.044
- NaCl CONCENTRATION REQUIRED TO STABILIZE SILVER-CHLORO COMPLEX SALTS IN AQUEOUS SOLUTION OF 70% (w/v) ETHANOL (b) [1, 3]: 0.128 g/L
- NaCl CONCENTRATION REQUIRED TO STABILIZE SILVER-CHLORO COMPLEX SALTS IN WATER (AQUEOUS SOLUTION) (a) [1, 3]: 2.925 g/L
- ratio of NaCl concentration required in 70% ethanol to that required in water [1, 4]: 0.049
- NaCl CONCENTRATION REQUIRED TO STABILIZE SILVER-CHLORO COMPLEX SALTS IN AQUEOUS SOLUTION OF 70% (w/v) ETHANOL (b) [1, 4]: 0.287 g/L
- NaCl CONCENTRATION REQUIRED TO STABILIZE SILVER-CHLORO COMPLEX SALTS IN WATER (AQUEOUS SOLUTION) (a) [1, 4]: 5.850 g/L
- ratio of NaCl concentration required in 70% ethanol to that required in water [1, 5]: 0.062
- NaCl CONCENTRATION REQUIRED TO STABILIZE SILVER-CHLORO COMPLEX SALTS IN AQUEOUS SOLUTION OF 70% (w/v) ETHANOL (b) [1, 5]: 1.820 g/L
- NaCl CONCENTRATION REQUIRED TO STABILIZE SILVER-CHLORO COMPLEX SALTS IN WATER (AQUEOUS SOLUTION) (a) [1, 5]: 29.250 g/L
- ratio of NaCl concentration required in 70% ethanol to that required in water [1, 6]: 0.107
- NaCl CONCENTRATION REQUIRED TO STABILIZE SILVER-CHLORO COMPLEX SALTS IN AQUEOUS SOLUTION OF 70% (w/v) ETHANOL (b) [1, 6]: 6.088 g/L
- NaCl CONCENTRATION REQUIRED TO STABILIZE SILVER-CHLORO COMPLEX SALTS IN WATER (AQUEOUS SOLUTION) (a) [1, 6]: 57.038 g/L
- ratio of NaCl concentration required in 70% ethanol to that required in water [1, 7]: 0.262
- NaCl CONCENTRATION REQUIRED TO STABILIZE SILVER-CHLORO COMPLEX SALTS IN AQUEOUS SOLUTION OF 70% (w/v) ETHANOL (b) [1, 7]: 29.532 g/L
- NaCl CONCENTRATION REQUIRED TO STABILIZE SILVER-CHLORO COMPLEX SALTS IN WATER (AQUEOUS SOLUTION) (a) [1, 7]: 112.905 g/L
- upper limit value of the silver-chloro complex salts [2]: 46 ppm
